Laboratory results: the supplement of paper PMC11451515

Test system: SEM cells
Test: cell viability relative to DMSO control; higher = less cytotoxic
Details: 48 h
In short: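 Library compounds in DMSO were pin-dosed into 1536-well plates (5 μl) holding NOMO1 or SEM (500 cells/well) or P12-Ichikawa (1000 cells/well) leukemia cells, across an 11-point threefold series of 47 μM to 0.79 nM. Each cell line had been adapted for at least four passages in each medium. CellTiter-Glo One luminescence was read after 48 h at 37°C. Viability is the per-plate percentage relative to DMSO wells, with cell-free wells as background.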

[1] = HPLM + 10% dialyzed FBS, 0.000781 µM
[2] = HPLM + 10% dialyzed FBS, 0.00234 µM
[3] = HPLM + 10% dialyzed FBS, 0.00702 µM
[4] = HPLM + 10% dialyzed FBS, 0.0211 µM
[5] = HPLM + 10% dialyzed FBS, 0.0632 µM
[6] = HPLM + 10% dialyzed FBS, 0.19 µM
[7] = HPLM + 10% dialyzed FBS, 0.569 µM
[8] = HPLM + 10% dialyzed FBS, 1.71 µM
[9] = HPLM + 10% dialyzed FBS, 5.12 µM
[10] = HPLM + 10% dialyzed FBS, 15.4 µM
[11] = HPLM + 10% dialyzed FBS, 46.1 µM
[12] = RPMI 5 mM glucose + 10% FBS, 0.000781 µM
[13] = RPMI 5 mM glucose + 10% FBS, 0.00234 µM
[14] = RPMI 5 mM glucose + 10% FBS, 0.00702 µM
[15] = RPMI 5 mM glucose + 10% FBS, 0.0211 µM
[16] = RPMI 5 mM glucose + 10% FBS, 0.0632 µM
[17] = RPMI 5 mM glucose + 10% FBS, 0.19 µM
[18] = RPMI 5 mM glucose + 10% FBS, 0.569 µM
[19] = RPMI 5 mM glucose + 10% FBS, 1.71 µM
[20] = RPMI 5 mM glucose + 10% FBS, 5.12 µM
[21] = RPMI 5 mM glucose + 10% FBS, 15.4 µM
[22] = RPMI 5 mM glucose + 10% FBS, 46.1 µM
[23] = RPMI 5 mM glucose + 10% dialyzed FBS, 0.000781 µM
[24] = RPMI 5 mM glucose + 10% dialyzed FBS, 0.00234 µM
[25] = RPMI 5 mM glucose + 10% dialyzed FBS, 0.00702 µM
[26] = RPMI 5 mM glucose + 10% dialyzed FBS, 0.0211 µM
[27] = RPMI 5 mM glucose + 10% dialyzed FBS, 0.0632 µM
[28] = RPMI 5 mM glucose + 10% dialyzed FBS, 0.19 µM
[29] = RPMI 5 mM glucose + 10% dialyzed FBS, 0.569 µM
[30] = RPMI 5 mM glucose + 10% dialyzed FBS, 1.71 µM
[31] = RPMI 5 mM glucose + 10% dialyzed FBS, 5.12 µM
[32] = RPMI 5 mM glucose + 10% dialyzed FBS, 15.4 µM
[33] = RPMI 5 mM glucose + 10% dialyzed FBS, 46.1 µM

Row | SMILES | cell viability [1] [%] | cell viability [2] [%] | cell viability [3] [%] | cell viability [4] [%] | cell viability [5] [%] | cell viability [6] [%] | cell viability [7] [%] | cell viability [8] [%] | cell viability [9] [%] | cell viability [10] [%] | cell viability [11] [%] | cell viability [12] [%] | cell viability [13] [%] | cell viability [14] [%] | cell viability [15] [%] | cell viability [16] [%] | cell viability [17] [%] | cell viability [18] [%] | cell viability [19] [%] | cell viability [20] [%] | cell viability [21] [%] | cell viability [22] [%] | cell viability [23] [%] | cell viability [24] [%] | cell viability [25] [%] | cell viability [26] [%] | cell viability [27] [%] | cell viability [28] [%] | cell viability [29] [%] | cell viability [30] [%] | cell viability [31] [%] | cell viability [32] [%] | cell viability [33] [%]
1 | Cl.c1cnc2cc3c(cc2n1)C1CNCC3C1 | 98.5 | 102 | 104 | 104 | 118 | 113 | 114 | 122 | 108 | 113 | 119 | 98.7 | 94.4 | 91.3 | 105 | 111 | 117 | 111 | 105 | 97.7 | 110 | 120 | 101 | 93.4 | 111 | 121 | 122 | 126 | 115 | 135 | 113 | 111 | 103
2 | Cc1ccc(NC(=O)c2ccc(CN3CCN(C)CC3)cc2)cc1Nc1nccc(-c2cccnc2)n1 | 68.4 | 92.2 | 114 | 101 | 104 | 111 | 96.5 | 101 | 99.2 | 101 | 93.9 | 81.2 | 114 | 134 | 134 | 124 | 140 | 115 | 114 | 109 | 110 | 99.4 | 72 | 103 | 100 | 94.7 | 114 | 107 | 96.6 | 112 | 80.1 | 100 | 86.6
3 | COc1cc(N2CCC(C(N)=O)CC2)ccc1Nc1nc(N)c(Cl)c(Nc2ccccc2[S+](=O)([O-])C(C)C)n1 | 81.4 | 83.3 | 87.8 | 96.1 | 82.2 | 104 | 97.6 | 84.1 | 66.5 | 13.3 | 3.39 | 103 | 109 | 107 | 104 | 97.6 | 108 | 120 | 92.9 | 43 | 6.28 | 3.46 | 74.8 | 85.1 | 94.3 | 76.9 | 88.5 | 88.8 | 99.4 | 86 | 69 | 13.2 | 2.73
4 | CNC(=O)[C@H](Cc1ccccc1)NC(=O)[C@H](CC(C)C)[C@H](CSc1cccs1)C(=O)NO | 83 | 82.9 | 90 | 96 | 87.5 | 110 | 100 | 95.7 | 80.4 | 57.7 | 24.5 | 95.9 | 75.4 | 96.3 | 105 | 74.8 | 90.6 | 89.8 | 97.6 | 77.7 | 45.8 | 25.4 | 86.5 | 69.4 | 75.4 | 82.2 | 67.2 | 81.7 | 90.6 | 78.4 | 70.6 | 40.4 | 21.5
5 | O=C(NC1CCOCC1)c1ccc(-c2cc(-c3c[nH]nc3-c3ccccn3)ccn2)cc1 | 106 | 108 | 108 | 115 | 117 | 120 | 114 | 112 | 105 | 120 | 114 | 124 | 116 | 124 | 121 | 118 | 132 | 104 | 120 | 118 | 122 | 122 | 98.7 | 108 | 110 | 111 | 104 | 105 | 106 | 104 | 113 | 110 | 123
6 | ClC1=CC=C(CCCOC/2=N/NC(=O)C(=C2NCC3=CN=CC=C3)/Br)C=C1 | 105 | 115 | 112 | 115 | 116 | 115 | 70.8 | 30.2 | 32.7 | 16 | 7.78 | 121 | 119 | 130 | 113 | 104 | 114 | 103 | 65.1 | 72.2 | 26.9 | 8.69 | 116 | 133 | 123 | 112 | 125 | 126 | 101 | 93.8 | 84.1 | 49.7 | 10
7 | C#CCN(C)[C@H](C)Cc1ccccc1 | 32.3 | 83.6 | 87.3 | 83.5 | 70.2 | 91.8 | 93.1 | 90.2 | 89.5 | 87.2 | 92.5 | 34.7 | 91.5 | 103 | 107 | 83.4 | 95.9 | 62.6 | 70.9 | 95.7 | 86.3 | 90.5 | 27.1 | 89.6 | 99.3 | 97.9 | 70.8 | 89.6 | 81.1 | 86.9 | 89.1 | 93.8 | 86
8 | Fc1ccc(C(c2ccc(F)cc2)N2CCN(C/C=C/c3ccccc3)CC2)cc1 | 113 | 126 | 109 | 102 | 116 | 76.8 | 111 | 109 | 55.8 | 96.2 | 81.6 | – | – | – | – | – | – | – | – | – | – | – | – | – | – | – | – | – | – | – | – | – | –
